US12350317B2, “Immunotherapy for the treatment and prevention of inflammatory bowel disease” (THE UAB RESEARCH FOUNDATION, priority 2019, dated 2025)

What was measured:
[1] = system: ribosomal protein S6 kinase; assay: S6K phosphorylation in flagellin-specific CD4+ T cells from Crohn's patients; type: cell-based, human; settings: re-stimulation with pooled flagellin
Method: (§3) Microbiota flagellin-specific CD4^+ T cells were labeled with proliferation dye and re-stimulated with autologous APCs plus Fla mix in the presence of 50 nM rapamycin, 1 mM metformin, or both. Phosphorylation of S6K was examined after 6 hours of stimulation (H and K), whereas CD4^+ T cell survival (I and L) and proliferation (J and M) were examined after 6-7 days.
(§4) Therefore, in order to target the metabolism of both naïve and memory CD4+ subsets, rapamycin, metformin, or both were tested, for their inhibitory effects on these cells post expansion.
Therefore, in order to target the metabolism of both naïve and memory CD4^+ subsets, rapamycin, metformin, or both, were tested for their inhibitory effects on these cells post expansion.

[2] = system: CBir1Tg CD4+CD44+ TM cells; assay: CBir1Tg CD4+ TM cells co-cultured with APCs and MEP1 in vitro; type: cell-based, mouse
Method: (§5) (A) CBir1Tg CD4^+CD44^+ TM cells were isolated from the spleen, labeled with CFSE, and co-cultured with irradiated APCs isolated from C57BL/6 mice in the presence of 1 μg/ml of MEP1, and 100 nM rapamycin, 1 mM metformin, or both. Absolute numbers of live and proliferating CD4^+ T cells post 90 hrs of culturing are shown respectively. OVA p323-339 stimulation was used as negative control. (B) Strategy of adoptive transfer, immunization, and ablation of donor CD4^+ TM cells. […] Mice without challenge and mice treated with 0.2% CMC post challenge were used as controls. Lymphocytes were isolated from the spleen on Day 42 and analyzed with FACS. Representative plots of donor/host CD4^+, donor CD4^+ TM, Treg, and Tfh are shown in (C), whereas statistics of corresponding absolute numbers are shown in (D-G).
(§6) This was tested in vivo by targeting established microbiota antigen-specific CD4+ TM cells in the periphery. […] Upon antigen challenge, on days 28 and 35, recipient mice were treated with metformin, rapamycin, the combination of both, or drug vehicle for 5 consecutive days, respectively. Recipient mice with immunization but no antigen challenge were used as controls (FIG. 10B). Assessed by the absolute numbers recovered from the spleen.

[3] = system: microbiota flagellin-specific CD4+ T cells; assay: Survival, proliferation and cytokine production of flagellin-specific CD4+ T cells from Crohn's patients; settings: for Cytokine production (IFNγ, TNFα and IL-17A) upon re-stimulation: 6-7 hours re-stimulation with APCs and Fla mix
Method: as §3
Expanded CD154^+ antigen-specific CD4^+ T cells were re-stimulated with autologous APCs and Fla mix, Fla mix with rapamycin, Fla mix with metformin, or Fla mix with rapamycin and metformin for 6-7 hours, with BFA added for the last 4 hours. CD4^+ T cells stimulated with CD3/CD28 beads were used as a positive control, whereas cells with no antigen added were used as a negative control. The cells were then stained for cytokines (TNF and IL-17A), activation of mTOR via the downstream marker phospho-S6K and analyzed by flow cytometry.
as §4

[4] = system: donor CBir1Tg CD4+ TM cells; assay: Ablation of pre-existing antigen-specific CD4+ TM cells in C57BL/6 mice upon MEP1 challenge; type: in vivo, mouse; settings: rapamycin 1 μg/g/day, metformin 150 μg/g/day i.p. 5 days after MEP1 challenge days 28 and 35; day 42
Method: as §5, §6

S6 kinase (S6K) = assay: S6K phosphorylation in naive CBir1Tg CD4+ T cells co-cultured with APCs and MEP1; type: cell-based, mouse; settings: 100 nM rapamycin, APCs and MEP1, 20 hrs
Method: (§1) CBir1Tg CD4^+CD44-naïve T cells were isolated from the spleen and co-cultured with irradiated antigen-presenting-cells (APCs) isolated from C57BL/6 mice, in the presence of 1 μg/ml of MEP1 with (blue) or without (red) 100 nM rapamycin. Phosphorylation of S6K in CBir1Tg CD4^+ T cells was examined after 20 hrs of stimulation. CBir1Tg CD4^+ T cell viability, uptake of fluorescent glucose analog 2-NBDG, proliferation, and Treg induction were determined with FACS after 90 hrs of co-culture. OVA p323-339 stimulation was used as a negative control (grey). Representative flow plots are shown in (A-D, and I), and statistics of 3 replicated experiments are shown in (E-H, and J). For in vitro and in vivo suppression assays, naïve CD4+ cells were isolated from CBir1Tg·Foxp3gfp spleen and cultured with MEP1 and rapamycin for 6 days for Treg induction. Then live CD4^+CD25^+GFP^+ Treg cells were sorted with flow cytometry as CBir1Tg iTreg Rapa. Live CD4^+CD25^+GFP^+ cells freshly isolated from naïve CBir1Tg·Foxp3gfp spleen were used as control (CBir1Tg tTreg) for suppression assay in vitro. CFSE labeled responder CD4+CD44-(Tn) cells were isolated from congenic CBir1Tg or C57BL/6 mouse and co-cultured with indicated ratios of CBir1Tg Treg cells in the presence of 1 μg/ml MEP1 or anti-mouse-CD3 and APCs for 3.5 days. […]

[5] = system: CBir1Tg CD4+CD44- naive T cells; assay: Naive CBir1Tg CD4+ T cell glucose uptake, viability, proliferation and Treg induction in vitro; type: cell-based, mouse
Method: as §1, with “CBir1Tg CD4^+ T cell viability, uptake of fluorescent glucose analog 2-NBDG, proliferation, and Treg induction were determined with FACS after 90 hrs of co-culture.” left out, “days. Representative graphs of antigen-specific and bystander suppression are shown in (K and M), respectively, and accumulated percentage of suppression are shown in (L and N).” for “days.”

DR0701 (HLA-DR7) = assay: Flagellin peptide binding to HLA-DR (DR0701); design: species or system human; settings: <20 = high affinity, 20-100 moderate affinity
Source text: (§2) CD4+ T cell effectors mediate colitis in mouse models. These effectors, for example, Th1 and Th17 are short-lived. The CD4+ T cell memory pool is a reservoir of chronicity and regenerating T effector cells. CD4+ TM cells are widely distributed in CBir1 TCR Tg mice (FIG. 1). Flagellin specific T cells can cause murine colitis, mainly Th17 mediated. Anti-CBir1 was detected in 50% of Crohn's patients and in multiple mouse models. The presence of anti-Cbir1 in CD patients is associated with small bowel (SB) involvement, fibrostenosis and internal perforating phenotypes, independent of anti-Saccharomyces cerevisiae antibodies (ASCA), anti-[…] antibodies and anti-OmpC antibodies. A subset of Crohn's patients has broad IgG reactivity to microbiota flagellins (FIG. 2). Flagellins have promiscuous T cell receptor epitopes. Therefore, whether microbiota flagellins contain epitope peptides that are broadly reactive in humans and can stimulate both TM and Tregs across a population of patients with Crohn's disease was studied. Peptides predicted to bind to 8 or more HLA-DRB1 molecules and to mouse H-2^b or H-2^d were studied. Thirty predicted flagellin epitopes were tested for binding to the four most common HLA-DR dimers (HLA-DR3, HLA-DR7, HLA-DR11 and HLA-DR15). All predicted flagellin epitopes bound at least one of the four HLA-DR dimers, and twenty of the predicted epitopes bound two or more.

DR1501 (HLA-DR15) = DR1501 (HLA-DR15) (Homo sapiens, UniProt P01903+P01911); assay: Flagellin peptide binding to HLA-DR (DR1501); settings: <20 = high affinity, 20-100 moderate affinity
Source text: as §2

DR1101 (HLA-DR11) = DR1101 (HLA-DR11) (Homo sapiens, UniProt P01903+P01911, A100R/A169T/A87E/I96F/K41T/L162R/M171V/P40S/Q125H/Q178H/Q39Y/Q99D/R42S/S66Y/T262R/V115G/W38E); assay: Flagellin peptide binding to HLA-DR (DR1101); settings: <20 = high affinity, 20-100 moderate affinity
Sequence of DR1101 (HLA-DR11) (P01903 26-254, other chains not shown): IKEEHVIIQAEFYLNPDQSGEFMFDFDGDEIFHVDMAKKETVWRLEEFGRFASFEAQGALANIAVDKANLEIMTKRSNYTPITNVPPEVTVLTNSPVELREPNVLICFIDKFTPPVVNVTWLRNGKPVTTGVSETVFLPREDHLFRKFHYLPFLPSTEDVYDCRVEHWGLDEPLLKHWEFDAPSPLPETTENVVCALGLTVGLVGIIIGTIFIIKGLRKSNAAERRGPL
Source text: as §2

## CN(C)C(=N)N=C(N)N [metformin]
[1]; 1 mM metformin alone
  Inhibitory effect on the mTOR pathway: no inhibitory effect
[2]
  Cell death / survival and inhibition of cell proliferation of CD4+ TM cells: comparable effect, or even worse, than rapamycin
[3]; 50 nM rapamycin or 1 mM metformin, 6-7 days
  Cell death: lesser extent of increased cell death
[3]; 50 nM rapamycin, 1 mM metformin, or both, 6-7 days
  Cell proliferation: decreased proliferation
[3]
  Cytokine production (IFNγ, TNFα and IL-17A) upon re-stimulation: neither rapamycin or metformin treatment altered the cytokine production
[4]
  Expansion of CBir1Tg CD4+ cells after antigen challenge (absolute numbers in spleen): no inhibitory result

## CO[C@H]1C[C@@H]2CC[C@@H](C)[C@@](O)(O2)C(=O)C(=O)N2CCCC[C@H]2C(=O)O[C@H]([C@H](C)C[C@@H]2CC[C@@H](O)[C@H](OC)C2)CC(=O)[C@H](C)/C=C(\C)[C@@H](O)[C@@H](OC)C(=O)[C@H](C)C[C@H](C)/C=C/C=C/C=C/1C [rapamycin]
S6 kinase (S6K)
  Reduction of phosphorylation of S6 kinase (S6K): roughly 60%
[1]; 50 nM rapamycin, 6 hours
  Reduction of phosphorylation of S6K compared to antigen alone: ~50%
[5]; 100 nM rapamycin, in presence of cognate antigen MEP1, 90 hrs
  Reduction of cell proliferation: roughly 10 fold
[5]; MEP1 and rapamycin vs MEP1 alone
  Increase of Treg cells in percentage: 20 fold
[3]
  Cytokine production (IFNγ, TNFα and IL-17A) upon re-stimulation: no effect

## MATEMVKYSNANILSQAGQ [CBir1 p456-475]
DR0701 (HLA-DR7)
  EC50 Ratio: 3.7
DR1501 (HLA-DR15)
  EC50 Ratio: 0.32

## MVVQHNLRAMNANRMLGIT [A4 Fla3 p1-19, Lachnospiraceae A4 Fla3 flagellin peptide 1-19]
DR1101 (HLA-DR11)
  EC50 Ratio: 0.2
DR0701 (HLA-DR7)
  EC50 Ratio: 2.5
DR1501 (HLA-DR15)
  EC50 Ratio: 0.32

## MVVQHNLRAMNSNRMLGITQ [FlaX p1-20, Lachnospiraceae FlaX flagellin peptide 1-20]
DR1501 (HLA-DR15)
  EC50 Ratio: 0.33
